# According to PubChem BioAssay (NCI):
#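 How tested: cells in 96-well plates exposed to compound for 48 hours at five concentrations. TGI marks complete inhibition of growth.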
# Legend:
# Experiment in all cases: NCI anticancer screen, dose series, 48 h
# [1] = system: HL-60(TB) leukemia
# [2] = system: MDA-MB-435
# [3] = system: UACC-257 melanoma
# [4] = system: NCI-H23 lung
# [5] = system: DU-145 prostate
# [6] = system: NCI-H460 lung
# [7] = system: PC-3 prostate
# [8] = system: HCT-15 colon
# [9] = system: OVCAR-4 ovarian
# [10] = system: K-562 leukemia
# [11] = system: M14 melanoma
# [12] = system: MDA-MB-231 breast
# [13] = system: OVCAR-5 ovarian
# [14] = system: SK-MEL-2 melanoma
# [15] = system: RXF 393 renal
# [16] = system: KM12 colon
# [17] = system: A549 NSCLC
Structure (SMILES),TGI [1] [µM],TGI [2] [µM],TGI [3] [µM],TGI [4] [µM],TGI [5] [µM],TGI [6] [µM],TGI [7] [µM],TGI [8] [µM],TGI [9] [µM],TGI [10] [µM],TGI [11] [µM],TGI [12] [µM],TGI [13] [µM],TGI [14] [µM],TGI [15] [µM],TGI [16] [µM],TGI [17] [µM]
COC(=O)CNS(=O)(=O)c1ccc(-c2c3nc(c(-c4ccc(S(=O)(=O)NCC(=O)OC)cc4)c4ccc([nH]4)c(-c4ccc(S(=O)(=O)NCC(=O)OC)cc4)c4nc(c(-c5ccc(S(=O)(=O)NCC(=O)OC)cc5)c5ccc2[nH]5)C=C4)C=C3)cc1,> 100,> 100,> 100,> 100,> 100,> 100,> 100,> 100,> 100,> 100,41.9,> 100,> 100,> 100,> 100,> 100,> 100
CNc1ccc2c(c1)[C@@]1(C)c3ccccc3[C@@H](C2)N1C,38.5,39.1,60.6,61.5,> 100,39.9,> 100,53,> 100,67.5,49.6,62.6,86.2,51.7,50.8,78.3,> 100
CCn1c(SCC(=O)NNC(=S)Nc2ccc([N+](=O)[O-])cc2)nc2ccccc2c1=O,> 100,> 100,> 100,> 100,> 100,> 100,> 100,> 100,> 100,> 100,> 100,> 100,> 100,> 100,> 100,> 100,> 100
CCOP(=O)(OCC)C(C)(CC)N/C(=N/C(NC(C)=O)(C(F)(F)F)C(F)(F)F)NC1=NC(C(F)(F)F)(C(F)(F)F)N=C(C(F)(F)F)O1 (stereo unspecified),45.8,> 100,94.8,91.5,> 100,> 100,77.6,> 100,84.2,> 100,64.7,48.7,> 100,62.3,93.8,> 100,> 100
CCOC(=O)Cn1c(=O)c2nc(SC)sc2n(CC)c1=S,> 100,3.2,> 100,> 100,> 100,> 100,> 100,> 100,> 100,> 100,17.4,> 100,> 100,> 100,> 100,> 100,> 100
N#CC(=C1CCN(CCCC(=O)c2ccc(F)cc2)CC1)c1ccccc1,> 100,> 100,> 100,> 100,> 100,> 100,> 100,> 100,> 100,> 100,,> 100,> 100,> 100,> 100,> 100,> 100
